Tested on: 945468-187-T-J2-PDC spheroids viability
Assay: Anticancer human tumor 945468-187-T-J2-PDC patient-derived rectal carcinoma cell line growth inhibition [PI3K]
Settings: spheroids with HUVEC and MSC; for IC50: curve of first compound; for viability, T/C: stronger effect = lower value
Method in brief: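 Complex 3D spheroids (cancer cells + endothelial HUVEC + mesenchymal stem cells); drug pairs of targeted agent x inavolisib/alpelisib/duvelisib/copanlisib; half-log series from ~Cmax, max 10 microM if Cmax unknown; endpoint viability.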

[1] = second compound 0.0316 µM, first compound 0.000316 µM
[2] = second compound 0.0316 µM, first compound 0.001 µM
[3] = second compound 0.0316 µM, first compound 0.00316 µM
[4] = second compound 0.0316 µM, first compound 0.01 µM
[5] = second compound 0.0316 µM, first compound 0.0316 µM
[6] = second compound 0.0316 µM, first compound 0.1 µM
[7] = second compound 0.1 µM, first compound 0.000316 µM
[8] = second compound 0.1 µM, first compound 0.001 µM
[9] = second compound 0.1 µM, first compound 0.00316 µM
[10] = second compound 0.1 µM, first compound 0.01 µM
[11] = second compound 0.1 µM, first compound 0.0316 µM
[12] = second compound 0.1 µM, first compound 0.1 µM
[13] = second compound 0.316 µM, first compound 0.000316 µM
[14] = second compound 0.316 µM, first compound 0.001 µM
[15] = second compound 0.316 µM, first compound 0.00316 µM
[16] = second compound 0.316 µM, first compound 0.01 µM
[17] = second compound 0.316 µM, first compound 0.0316 µM
[18] = second compound 0.316 µM, first compound 0.1 µM
[19] = second compound 1 µM, first compound 0.000316 µM
[20] = second compound 1 µM, first compound 0.001 µM
[21] = second compound 1 µM, first compound 0.00316 µM
[22] = second compound 1 µM, first compound 0.01 µM
[23] = second compound 1 µM, first compound 0.0316 µM
[24] = second compound 1 µM, first compound 0.1 µM
[25] = second compound 3.16 µM, first compound 0.000316 µM
[26] = second compound 3.16 µM, first compound 0.001 µM
[27] = second compound 3.16 µM, first compound 0.00316 µM
[28] = second compound 3.16 µM, first compound 0.01 µM
[29] = second compound 3.16 µM, first compound 0.0316 µM
[30] = second compound 3.16 µM, first compound 0.1 µM
[31] = second compound 10 µM, first compound 0.000316 µM
[32] = second compound 10 µM, first compound 0.001 µM
[33] = second compound 10 µM, first compound 0.00316 µM
[34] = second compound 10 µM, first compound 0.01 µM
[35] = second compound 10 µM, first compound 0.0316 µM
[36] = second compound 10 µM, first compound 0.1 µM
[37] = second compound 0.0316 µM, first compound 0.316 µM
[38] = second compound 0.0316 µM, first compound 1 µM
[39] = second compound 0.0316 µM, first compound 3.16 µM
[40] = second compound 0.0316 µM, first compound 10 µM
[41] = second compound 0.1 µM, first compound 0.316 µM
[42] = second compound 0.1 µM, first compound 1 µM
[43] = second compound 0.1 µM, first compound 3.16 µM
[44] = second compound 0.1 µM, first compound 10 µM
[45] = second compound 0.316 µM, first compound 0.316 µM
[46] = second compound 0.316 µM, first compound 1 µM
[47] = second compound 0.316 µM, first compound 3.16 µM
[48] = second compound 0.316 µM, first compound 10 µM
[49] = second compound 1 µM, first compound 0.316 µM
[50] = second compound 1 µM, first compound 1 µM
[51] = second compound 1 µM, first compound 3.16 µM
[52] = second compound 1 µM, first compound 10 µM
[53] = second compound 3.16 µM, first compound 0.316 µM
[54] = second compound 3.16 µM, first compound 1 µM
[55] = second compound 3.16 µM, first compound 3.16 µM
[56] = second compound 3.16 µM, first compound 10 µM
[57] = second compound 10 µM, first compound 0.316 µM
[58] = second compound 10 µM, first compound 1 µM
[59] = second compound 10 µM, first compound 3.16 µM
[60] = second compound 10 µM, first compound 10 µM
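Note: spheroids exposed to compounds for seven days before reading.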

CC(=O)c1c(C)c2cnc(Nc3ccc(N4CCNCC4)cn3)nc2n(C2CCCC2)c1=O + Cc1nc(NC(=O)N2CCCC2C(N)=O)sc1-c1ccnc(C(C)(C)C(F)(F)F)c1
IC50 (second compound 0.0316 µM): > 0.1 µM | IC50 (second compound 0.1 µM): > 0.1 µM | IC50 (second compound 0.316 µM): > 0.1 µM | IC50 (second compound 1 µM): > 0.1 µM | IC50 (second compound 3.16 µM): > 0.1 µM | IC50 (second compound 10 µM): > 0.1 µM | viability, T/C [1]: 79.2% | viability, T/C [2]: 88.4% | viability, T/C [3]: 89.4% | viability, T/C [4]: 121% | viability, T/C [5]: 79.5% | viability, T/C [6]: 98.2% | viability, T/C [7]: 86.1% | viability, T/C [8]: 84.2% | viability, T/C [9]: 89.6% | viability, T/C [10]: 84.1% | viability, T/C [11]: 110% | viability, T/C [12]: 103% | viability, T/C [13]: 93.7% | viability, T/C [14]: 107% | viability, T/C [15]: 95.5% | viability, T/C [16]: 88.6% | viability, T/C [17]: 118% | viability, T/C [18]: 136% | viability, T/C [19]: 118% | viability, T/C [20]: 110% | viability, T/C [21]: 75.7% | viability, T/C [22]: 78% | viability, T/C [23]: 94.9% | viability, T/C [24]: 90.3% | viability, T/C [25]: 79.2% | viability, T/C [26]: 71.7% | viability, T/C [27]: 82.8% | viability, T/C [28]: 75.3% | viability, T/C [29]: 83% | viability, T/C [30]: 78.2% | viability, T/C [31]: 83% | viability, T/C [32]: 66.7% | viability, T/C [33]: 78% | viability, T/C [34]: 64.5% | viability, T/C [35]: 92.7% | viability, T/C [36]: 76.3%

CC(C)n1nc(-c2ccc3oc(N)nc3c2)c2c(N)ncnc21 + Cc1nc(NC(=O)N2CCCC2C(N)=O)sc1-c1ccnc(C(C)(C)C(F)(F)F)c1
IC50 (second compound 0.0316 µM): > 0.1 µM | IC50 (second compound 0.1 µM): > 0.1 µM | IC50 (second compound 0.316 µM): > 0.1 µM | IC50 (second compound 1 µM): > 0.1 µM | IC50 (second compound 3.16 µM): 0.0583 µM | IC50 (second compound 10 µM): 0.0213 µM | viability, T/C [1]: 91.4% | viability, T/C [2]: 109% | viability, T/C [3]: 69.1% | viability, T/C [4]: 83.5% | viability, T/C [5]: 77.9% | viability, T/C [6]: 71.2% | viability, T/C [7]: 103% | viability, T/C [8]: 77.7% | viability, T/C [9]: 88.6% | viability, T/C [10]: 81.4% | viability, T/C [11]: 84.9% | viability, T/C [12]: 55.6% | viability, T/C [13]: 65.9% | viability, T/C [14]: 68.2% | viability, T/C [15]: 80.4% | viability, T/C [16]: 81.5% | viability, T/C [17]: 75.3% | viability, T/C [18]: 68.8% | viability, T/C [19]: 70.3% | viability, T/C [20]: 80.6% | viability, T/C [21]: 73.2% | viability, T/C [22]: 91.5% | viability, T/C [23]: 75.3% | viability, T/C [24]: 57.9% | viability, T/C [25]: 77% | viability, T/C [26]: 68.9% | viability, T/C [27]: 75.2% | viability, T/C [28]: 78.1% | viability, T/C [29]: 64% | viability, T/C [30]: 37.6% | viability, T/C [31]: 77.5% | viability, T/C [32]: 62.4% | viability, T/C [33]: 66.9% | viability, T/C [34]: 58.7% | viability, T/C [35]: 46.5% | viability, T/C [36]: 27.2%

CCCS(=O)(=O)Nc1ccc(F)c(C(=O)c2c[nH]c3ncc(-c4ccc(Cl)cc4)cc23)c1F + Cc1nc(NC(=O)N2CCCC2C(N)=O)sc1-c1ccnc(C(C)(C)C(F)(F)F)c1
IC50 (second compound 0.0316 µM): 4.36 µM | IC50 (second compound 0.1 µM): 3.88 µM | IC50 (second compound 0.316 µM): 5.58 µM | IC50 (second compound 1 µM): 4.71 µM | IC50 (second compound 3.16 µM): 4.23 µM | IC50 (second compound 10 µM): 4.46 µM | viability, T/C [5]: 84.6% | viability, T/C [6]: 96.3% | viability, T/C [37]: 67.6% | viability, T/C [38]: 80.9% | viability, T/C [39]: 68.5% | viability, T/C [40]: 2.55% | viability, T/C [11]: 87.3% | viability, T/C [12]: 66.7% | viability, T/C [41]: 86.7% | viability, T/C [42]: 108% | viability, T/C [43]: 59.9% | viability, T/C [44]: 4.2% | viability, T/C [17]: 98.5% | viability, T/C [18]: 84.8% | viability, T/C [45]: 74.3% | viability, T/C [46]: 84.8% | viability, T/C [47]: 81.9% | viability, T/C [48]: 17.3% | viability, T/C [23]: 78% | viability, T/C [24]: 84.7% | viability, T/C [49]: 71.3% | viability, T/C [50]: 67.5% | viability, T/C [51]: 73.7% | viability, T/C [52]: 5.17% | viability, T/C [29]: 68.8% | viability, T/C [30]: 66% | viability, T/C [53]: 78.5% | viability, T/C [54]: 72.5% | viability, T/C [55]: 63.4% | viability, T/C [56]: 8.66% | viability, T/C [35]: 60.4% | viability, T/C [36]: 61.4% | viability, T/C [57]: 80% | viability, T/C [58]: 55.6% | viability, T/C [59]: 70.2% | viability, T/C [60]: 13.4%

CNC(=O)c1ccc(N2C(=S)N(c3ccc(C#N)c(C(F)(F)F)c3)C(=O)C2(C)C)cc1F + Cc1nc(NC(=O)N2CCCC2C(N)=O)sc1-c1ccnc(C(C)(C)C(F)(F)F)c1
IC50 (second compound 0.0316 µM): > 10 µM | IC50 (second compound 0.1 µM): > 10 µM | IC50 (second compound 0.316 µM): > 10 µM | IC50 (second compound 1 µM): > 10 µM | IC50 (second compound 3.16 µM): > 10 µM | IC50 (second compound 10 µM): > 10 µM | viability, T/C [5]: 116% | viability, T/C [6]: 103% | viability, T/C [37]: 88.8% | viability, T/C [38]: 106% | viability, T/C [39]: 108% | viability, T/C [40]: 102% | viability, T/C [11]: 95.4% | viability, T/C [12]: 82% | viability, T/C [41]: 91.3% | viability, T/C [42]: 95.5% | viability, T/C [43]: 102% | viability, T/C [44]: 85.7% | viability, T/C [17]: 108% | viability, T/C [18]: 105% | viability, T/C [45]: 91.5% | viability, T/C [46]: 118% | viability, T/C [47]: 85.5% | viability, T/C [48]: 92.6% | viability, T/C [23]: 93.3% | viability, T/C [24]: 86.2% | viability, T/C [49]: 110% | viability, T/C [50]: 79.8% | viability, T/C [51]: 78.4% | viability, T/C [52]: 92.9% | viability, T/C [29]: 81.1% | viability, T/C [30]: 85.8% | viability, T/C [53]: 84.7% | viability, T/C [54]: 83% | viability, T/C [55]: 89% | viability, T/C [56]: 83.6% | viability, T/C [35]: 83.1% | viability, T/C [36]: 68.5% | viability, T/C [57]: 74.1% | viability, T/C [58]: 73.5% | viability, T/C [59]: 72.6% | viability, T/C [60]: 63.5%
